Laboratory results published in patent US8686113B2 (priority 2009, dated 2014).
≈ marks a conversion by molar mass, not a printed value. Like-named read-outs stand apart in the source and are kept apart here. Non-standard residues stand in square brackets, D forms with d. Residues, ends and D or L forms follow the SMILES beside them. *: point of attachment. Hyp = O=C(O)[C@@H]1C[C@@H](O)CN1; hArg = N=C(N)NCCCC[C@H](N)C(=O)O; Orn = NCCC[C@H](N)C(=O)O; NHPr = CCCN*

Tests used:
K. pneumoniae 012-3131 = tested on: K. pneumoniae 012-3131
Procedure: (§1) The minimum inhibitory concentrations (MIC) of the antimicrobial peptides and peptide derivatives were determined in microdilution assays. These used a continuous peptide dilution in sterile flat-bottomed 96-well microtiter plates (polystyrene, Greiner Bio-One GmbH, Frickenhausen, Germany) and a total volume of 100 μL per well. The aqueous peptide or peptidomimetic solutions were diluted with 1% TSB water, to obtain a final concentration of 256 μg/mL. 50 μL of the peptide or peptidomimetic solution was pipetted into the first well of each series and stirred. From this solution, 50 μL was transferred to the second well, stirred and again 50 μL was transferred to the next well, and so on. A double dilution series is obtained, beginning at 256 μg/mL in the first well to 125 ng/mL in the twelfth well. The bacteria, e.g. E. coli BL21 A1, were cultured overnight at 37° C. in nutrient broth (NB, Carl Roth GmbH+Co. KG, Karlsruhe, Germany). 50 μL of a 5×10^6 bacteria/mL suspension in 1% TSB was added to each well of the microtiter plate and thus a final concentration of the peptides or peptidomimetics from 128 μg/mL (well 1) to 62.5 ng/mL (well 12) was established in each series. The plates were incubated at 37° C. for 20 h and then the absorption was measured at 595 nm with a TECAN microtiter plate spectrophotometer (Tecan Trading AG, Mannedorf, Switzerland). The MIC values of all peptides and peptidomimetics were determined in triplicate. Sterile water was used as negative control.
(§2) The tests were in this case carried out in Mueller-Hinton medium (¼ concentrated), which is equivalent to 1% TSB.

E. coli D31 J. Wilson = conditions: ¼ Muller-Hinton medium
Procedure: as §1, §2

[1] = tested on: K. pneumoniae K6 ATCC 700603
Procedure: as §1, §2

E. coli 045-849 SENTRY = conditions: 045-849 SENTRY
Procedure: as §1, §2

E. coli ATCC BAA-457 = conditions: ¼ Muller-Hinton medium
Procedure: as §1, §2

K. pneumoniae ATCC 27799 = tested on: K. pneumoniae ATCC 27799
Procedure: as §1, §2

M. luteus 10240 = experiment: Growth inhibition assay (microdilution MIC); type: cell-based, Micrococcus luteus; conditions: 10240, 20 h
Summary of the method: (§3)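 Broth microdilution in 1% TSB with twofold peptide series, final 128 μg/mL to 62.5 ng/mL, against 5×10^6 bacteria/mL stock suspension added 1:1. Incubated 20 h at 37 °C, growth read by absorbance at 595 nm; MIC is the lowest concentration with no growth, determined in triplicate.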

E. coli BL21 A1 = type: cell-based, Escherichia coli; conditions: BL21, 20 h
Summary of the method: as §3

[2] = mouse, serum
[3] = mouse, serum, Half-life in 25% mouse serum, 25% aqueous mouse serum, 37° C., 75 μg/mL peptide
Procedure: For this, the peptides and peptidomimetics were dissolved in water, mouse serum was added and the peptide concentration was adjusted to 75 μg/mL. While shaking continuously, the mixture was incubated at 37° C. After 0, 30, 60, 120, 240 and 360 minutes, in each case an aliquot was taken and mixed with 15% aqueous trichloroacetic acid (Carl Roth GmbH & Co. KG; Karlsruhe, Germany). After incubation on ice for a further 10 minutes, the precipitated serum proteins were centrifuged off (5 min, 13400 rpm, MiniSpin, Eppendorf AG, Hamburg, Germany). The supernatant was removed, neutralized with 1 mol/L aqueous sodium hydroxide solution (Fluke Chemie GmbH, Buchs, Switzerland) and stored at −20° C. until analysis.
The supernatants were analyzed by RP-HPLC with a linear acetonitrile gradient (Biosolve BV, Valkenswaard, The Netherlands) in the presence of 0.1% trifluoroacetic acid (TFA, UV-grade, Fluka Chemie GmbH, Buchs, Switzerland) as ion-pairing reagent. The fractions were co-crystallized with α-cyanohydroxycinnamic acid (Bruker Daltonik GmbH; Bremen, Germany) as matrix (5.3 mg/mL in 50% acetonitrile in 0.1% aqueous TFA) and were analyzed with a tandem mass spectrometer (MALDI-TOF/TOF-MS, 4700 Proteomics Analyzer; Applied Biosystems GmbH, Weiterstadt, Germany) in the positive-ion reflector mode. The proportion of intact peptides and their degradation products or metabolites could thus be identified and quantified at the individual time points. The control used was 25% aqueous mouse serum, which was analyzed in parallel for the same time intervals.

[4] = tested on: Escherichia coli DSM 10233
Procedure: as §1
The peptides shown in Table 8 were investigated for their MIC against pathogenic bacteria such as E. coli DSM 10233, K. pneumoniae DSM 681 and P. aeruginosa DSM 3227.

Compound	MIC K. pneumoniae 012-3131 (K. pneumoniae 012-3131) [µg/mL]	MIC E. coli D31 J. Wilson (E. coli D31 J. Wilson) [µg/mL]	MIC K. pneumoniae K6 ATCC 700603 ([1]; ATCC 700603) [µg/mL]	MIC E. coli 045-849 SENTRY (E. coli 045-849 SENTRY) [µg/mL]	MIC E. coli SEQ 102ATCC # BAA-4 57 (E. coli ATCC BAA-457) [µg/mL]	MIC K. pneumoniae ATCC 27799 (K. pneumoniae ATCC 27799; ATCC 27799) [µg/mL]	MIC M. luteus 10240 (M. luteus 10240) [µg/mL]	MIC E. coli BL21 A1 (E. coli BL21 A1) [µg/mL]	half-life [2] [h]	half-life [3] [h]	MIC K. pneumoniae K6 ATCC 700603 ([1]; ¼ Muller-Hinton medium) [µg/mL]	MIC K. pneumoniae ATCC 27799 (K. pneumoniae ATCC 27799; ¼ Muller-Hinton medium) [µg/mL]	MIC E. coli DSM 10233 [4] [µg/mL]
H-VDKPPYLPRPRPPRRIYNRN-OH [compound 16]	32	32	64	4	32	128	16	8	–	–	–	–	–
CC[C@H](C)[C@H](NC(=O)[C@H](CCCNC(=N)N)NC(=O)[C@H](CCCNC(=N)N)NC(=O)[C@@H]1CCCN1C(=O)[C@@H]1CCCN1C(=O)[C@H](CCCNC(=N)N)NC(=O)[C@@H]1CCCN1C(=O)[C@H](CCCNC(=N)N)NC(=O)[C@@H]1CCCN1C(=O)[C@H](CC(C)C)NC(=O)[C@H](Cc1ccc(O)cc1)NC(=O)[C@@H]1CCCN1C(=O)[C@@H]1C[C@@H](O)CN1C(=O)[C@H](CCCCN)NC(=O)[C@H](CC(=O)O)NC(=O)[C@@H](N)C(C)C)C(=O)N[C@@H](Cc1ccc(O)cc1)C(=O)N[C@@H](CC(N)=O)C(=O)N[C@@H](CCCNC(=N)N)C(=O)O [compound 23] (H-VDK[Hyp]PYLPRPRPPRRIYNR-OH)	16 (≈ 6.65 µM)	8 (≈ 3.32 µM)	32 (≈ 13.3 µM)	8 (≈ 3.32 µM)	32 (≈ 13.3 µM)	64 (≈ 26.6 µM)	16 (≈ 6.65 µM)	8 (≈ 3.32 µM)	–	–	–	–	–
CC[C@H](C)[C@H](NC(=O)[C@@H]1C[C@@H](O)CN1C(=O)[C@H](CCCNC(=N)N)NC(=O)[C@@H]1CCCN1C(=O)[C@@H]1CCCN1C(=O)[C@H](CCCNC(=N)N)NC(=O)[C@@H]1CCCN1C(=O)[C@H](CCCNC(=N)N)NC(=O)[C@@H]1CCCN1C(=O)[C@H](CC(C)C)NC(=O)[C@H](Cc1ccc(O)cc1)NC(=O)[C@@H]1CCCN1C(=O)[C@@H]1CCCN1C(=O)[C@H](CCCCN)NC(=O)[C@H](CC(=O)O)NC(=O)[C@@H](N)C(C)C)C(=O)N[C@@H](Cc1ccc(O)cc1)C(=O)N[C@@H](CC(N)=O)C(=O)N[C@@H](CCCNC(=N)N)C(N)=O [compound 25] (H-VDKPPYLPRPRPPR[Hyp]IYNR-NH2)	–	–	–	–	–	–	8 (≈ 3.41 µM)	16 (≈ 6.82 µM)	4	–	–	–	–
H-VDKPPYLPRPRPPRRIYNRN-NH2 [compound 17]	–	–	–	–	–	–	128	16	–	0.75	–	–	–
H-VDKPPYLPRPKPPRRIYNNR-OH [compound 5]	64	64	–	16	128	–	16	16	–	–	128	128	–
CC[C@H](C)[C@H](NC(=O)[C@H](Cc1ccc(O)cc1)NC(=O)[C@H](CC(N)=O)NC(=O)[C@@H](N)CCCN)C(=O)N1C[C@H](O)C[C@H]1C(=O)N[C@@H](CCCNC(=N)N)C(=O)N1CCC[C@H]1C(=O)N1CCC[C@H]1C(=O)N[C@@H](CCCNC(=N)N)C(=O)N1CCC[C@H]1C(=O)N[C@@H](CCCNC(=N)N)C(=O)N1CCC[C@H]1C(=O)N[C@@H](CC(C)C)C(=O)N[C@@H](Cc1ccc(O)cc1)C(=O)N1CCC[C@H]1C(=O)N1CCC[C@H]1C(=O)N[C@@H](CCCCN)C(=O)N[C@@H](CC(=O)O)C(=O)N[C@H](C(N)=O)C(C)C [SEQ ID NO. 114] (H-[Orn]NYI[Hyp]RPPRPRPLYPPKDV-NH2)	–	–	–	–	–	–	–	–	–	–	–	–	1 to 4
CC[C@H](C)[C@H](NC(=O)[C@H](Cc1ccc(O)cc1)NC(=O)[C@H](CC(N)=O)NC(=O)[C@@H](N)CCCN)C(=O)N[C@@H](CCCN)C(=O)N[C@@H](CCCNC(=N)N)C(=O)N1CCC[C@H]1C(=O)N1CCC[C@H]1C(=O)N[C@@H](CCCNC(=N)N)C(=O)N1CCC[C@H]1C(=O)N[C@@H](CCCNC(=N)N)C(=O)N1CCC[C@H]1C(=O)N[C@@H](CC(C)C)C(=O)N[C@@H](Cc1ccc(O)cc1)C(=O)N1CCC[C@H]1C(=O)N1CCC[C@H]1C(=O)N[C@@H](CCCCN)C(=O)N[C@@H](CC(=O)O)C(=O)N[C@H](C(N)=O)C(C)C [SEQ ID NO. 113, ONYIORPPRPRPLYPPKDV-NH2] (H-[Orn]NYI[Orn]RPPRPRPLYPPKDV-NH2)	–	–	–	–	–	–	–	–	–	–	–	–	1 to 4
CCCNC(=O)[C@H](CCCNC(=N)N)NC(=O)[C@H](CC(N)=O)NC(=O)[C@H](Cc1ccc(O)cc1)NC(=O)[C@@H](NC(=O)[C@H](CCCN)NC(=O)[C@H](CCCNC(=N)N)NC(=O)[C@@H]1CCCN1C(=O)[C@@H]1CCCN1C(=O)[C@H](CCCNC(=N)N)NC(=O)[C@@H]1CCCN1C(=O)[C@H](CCCNC(=N)N)NC(=O)[C@@H]1CCCN1C(=O)[C@H](CC(C)C)NC(=O)[C@H](Cc1ccc(O)cc1)NC(=O)[C@@H]1CCCN1C(=O)[C@@H]1CCCN1C(=O)[C@H](CCCCN)NC(=O)[C@H](CC(=O)O)NC(=O)[C@@H](N)C(C)C)[C@@H](C)CC [SEQ ID NO. 71, VDKPPYLPRPRPPROIYNR-NHC3H7] (H-VDKPPYLPRPRPPR[Orn]IYNR-NHPr)	–	–	–	–	–	–	–	4 (≈ 1.67 µM)	–	> 6	–	–	–
H-VDKPPYLPRPRPPRPIYNR-OH [compound 20]	64	4	128	8	32	64	16	8	–	–	–	–	–
CC[C@H](C)[C@H](NC(=O)[C@H](CCCCNC(=N)N)NC(=O)[C@H](CCCNC(=N)N)NC(=O)[C@@H]1CCCN1C(=O)[C@@H]1CCCN1C(=O)[C@H](CCCNC(=N)N)NC(=O)[C@@H]1CCCN1C(=O)[C@H](CCCNC(=N)N)NC(=O)[C@@H]1CCCN1C(=O)[C@H](CC(C)C)NC(=O)[C@H](Cc1ccc(O)cc1)NC(=O)[C@@H]1CCCN1C(=O)[C@@H]1CCCN1C(=O)[C@H](CCCCN)NC(=O)[C@H](CC(=O)O)NC(=O)[C@@H](N)C(C)C)C(=O)N[C@@H](Cc1ccc(O)cc1)C(=O)N[C@@H](CC(N)=O)C(=O)N[C@@H](CCCCNC(=N)N)C(N)=O [compound 67] (H-VDKPPYLPRPRPPR[hArg]IYN[hArg]-NH2)	–	–	–	–	–	–	4 (≈ 1.65 µM)	4 (≈ 1.65 µM)	0.917	–	–	–	–
H-VDKPPYLPRPRPPRRIYNN-NH2 [compound 51]	–	–	–	–	–	–	64	16	–	2	–	–	–
CC[C@H](C)[C@H](NC(=O)[C@H](CCCNC(=N)N)NC(=O)[C@H](CCCNC(=N)N)NC(=O)[C@@H]1CCCN1C(=O)[C@@H]1CCCN1C(=O)[C@H](CCCNC(=N)N)NC(=O)[C@@H]1CCCN1C(=O)[C@H](CCCNC(=N)N)NC(=O)[C@@H]1C[C@@H](O)CN1C(=O)[C@H](CC(C)C)NC(=O)[C@H](Cc1ccc(O)cc1)NC(=O)[C@@H]1CCCN1C(=O)[C@@H]1CCCN1C(=O)[C@H](CCCCN)NC(=O)[C@H](CC(=O)O)NC(=O)[C@@H](N)C(C)C)C(=O)N[C@@H](Cc1ccc(O)cc1)C(=O)N[C@@H](CC(N)=O)C(=O)N[C@@H](CCCNC(=N)N)C(=O)O [compound 21] (H-VDKPPYL[Hyp]RPRPPRRIYNR-OH)	32 (≈ 13.3 µM)	32 (≈ 13.3 µM)	64 (≈ 26.6 µM)	16 (≈ 6.65 µM)	64 (≈ 26.6 µM)	128 (≈ 53.2 µM)	16 (≈ 6.65 µM)	16 (≈ 6.65 µM)	–	–	–	–	–
